Values of other authors in patent US20080097086A1, “Process for preparing anti-tumor oligosaccharide material from chitosan” (TENWELL BIOTECHNOLOGY LIMITED, priority 2006, published 2008).
Where “and” joins values, the source holds several entries; their conditions need not be identical. Equal entries are not always repeated.

Tests used:
S180 = settings: intravenous, S180-implanted ddY mice
[1] = tested on: fibrosarcoma (Meth-A) solid tumor cells

chitohexaose
inhibitory rate on tumor growth (S180; 3 times at 100 mg/Kg/d, after seven days, 100 mg/kg/day): 85% and 93% | control of tumor growth (S180; increased to 5 times): complete control of tumor growth | dose displaying the strongest effect ([1]; Meth-A solid tumor): 10 mg/kg | inhibition of Meth-A solid tumor ([1]; in vivo): significant inhibition
